Reference: patent US20070129330A1, “1,3-Diaza-dibenzo[e,h]azulenes for the treatment of central nervous system diseases and disorders” (Pliva-Istrazivacki Institut d.o.o., priority 2003, published 2007)

What was measured:
5-HT2C receptor = biological target: T1, 5-HT2C receptor (Homo sapiens, UniProt P28335); test: radioligand binding assay for 5-HT2C receptor ([3H]-mesulergine competitive binding); conditions: choroid plexus or recombinant 5-HT2C receptor expressed in CHO-K1 cells; for IC50: read-out: binding affinity to 5-HT2C serotonin receptor expressed as IC50 value; for Ki: read-out: binding affinity to 5-HT2C serotonin receptor, Ki value
T1 construct: expressed in transfected cells; host or cells: CHO-K1 (alternatively choroid plexus tissue)
T1 sequence (P28335 33-458): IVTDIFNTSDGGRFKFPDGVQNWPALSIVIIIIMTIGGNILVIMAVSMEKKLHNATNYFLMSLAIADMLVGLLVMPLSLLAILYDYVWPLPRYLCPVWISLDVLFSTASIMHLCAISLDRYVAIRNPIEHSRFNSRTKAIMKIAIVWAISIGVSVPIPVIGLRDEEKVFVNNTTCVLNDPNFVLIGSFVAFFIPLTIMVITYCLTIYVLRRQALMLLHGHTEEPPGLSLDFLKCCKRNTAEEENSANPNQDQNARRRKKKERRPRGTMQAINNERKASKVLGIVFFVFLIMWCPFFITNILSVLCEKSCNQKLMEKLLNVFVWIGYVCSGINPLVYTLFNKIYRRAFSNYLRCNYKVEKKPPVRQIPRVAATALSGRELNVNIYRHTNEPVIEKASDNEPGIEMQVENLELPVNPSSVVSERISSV
Procedure: (§1) The effect of the compounds of the present invention on the neurochemical steady state was determined by in vitro investigations such as a radionuclide-marked radioligand binding assay for 5-HT2A (Bonhaus D. W. Br. J. Pharmacol. 1995, 115:622; Saucier C. J. Neurochem. 1997, 68:1998) and 5-HT2C receptors (Wolf W.A. J. Neurochem. 1997, 69:1449), in vitro binding assay for the σ1 receptor (Thomson W. and Donn R. Arthritis Res. 2002, 4: 302-306) and by in vivo investigations in a tail suspension test (Vogel H. G. and Vogel W. H. Drug Discovery and Evaluation Pharmacological Assays, Springer 1997, 304), in amphetamine-induced hyperlocomotion in mice (Millan M. J. et al, 1998 J. Pharmacol. Exp. Ther. 287: 167-186), in a forced swim test in mice (Porsolt R. D. et al. Arch. Int. Pharmacodyn. 1977, 229:327-336), in meta-chlorophenyl piperazine (m-CPP) test on rats (Drug Dev. Res. 1989, 18:119-144), and in apomorphine, tryptamine and norepinephrine (ATN) test in rats (Arch. Int. Pharmacodyn. 1977, 227:238-253).
(§2) A small concentration of a radioligand having a great affinity for binding to a receptor was incubated with a tissue sample enriched with a certain receptor (1-5 mg of tissue) in a buffered medium (0.2-5 mL). Recombinant human HT2A and HT2C receptors were expressed in CHO-K1 or COS-7 cells and were also used for competitive binding. During incubation the radioligand bound to the receptor. When a binding balance was achieved, the receptors to which the radioligand was bound were separated from those to which said ligand was not bound, and the radioactivity of the receptor/radioligand complex was measured. The interaction of the tested compounds with receptors was tested in competitive binding experiments. Various concentrations of tested compounds were added to the incubation mixture containing a prepared tissue enriched with corresponding receptors and the radioligand. The radioligand binding was inhibited by the test compounds proportionally to the affinity of a certain compound for the receptor and to the concentration of the compound.
(§3) The radioligand used for the determination of binding to 5-HT2A receptor was [^3H]-ketanserin and the tissue used was human cortex or recombinant 5-HT2A receptor expressed in CHO-K1 cells. The radioligand used for the determination of binding to 5-HT2C receptor was [^3H]-mesulergine and the tissue used was choroid plexus or recombinant 5-HT2C receptor expressed in CHO-K1 cells.
(§4) It is anticipated that similar results will be observed for other compounds of the invention.

5-HT2A receptor = biological target: T2, 5-HT2A receptor (Homo sapiens, UniProt P28223); test: radioligand binding assay for 5-HT2A receptor ([3H]-ketanserin competitive binding); conditions: human cortex or recombinant 5-HT2A receptor expressed in CHO-K1 cells; for IC50: read-out: binding affinity to 5-HT2A serotonin receptor expressed as IC50 value; for Ki: read-out: binding affinity to 5-HT2A serotonin receptor, Ki value
T2 construct: expressed in transfected cells; host or cells: CHO-K1 (alternatively human cortex tissue)
T2 sequence (P28223 whole entry): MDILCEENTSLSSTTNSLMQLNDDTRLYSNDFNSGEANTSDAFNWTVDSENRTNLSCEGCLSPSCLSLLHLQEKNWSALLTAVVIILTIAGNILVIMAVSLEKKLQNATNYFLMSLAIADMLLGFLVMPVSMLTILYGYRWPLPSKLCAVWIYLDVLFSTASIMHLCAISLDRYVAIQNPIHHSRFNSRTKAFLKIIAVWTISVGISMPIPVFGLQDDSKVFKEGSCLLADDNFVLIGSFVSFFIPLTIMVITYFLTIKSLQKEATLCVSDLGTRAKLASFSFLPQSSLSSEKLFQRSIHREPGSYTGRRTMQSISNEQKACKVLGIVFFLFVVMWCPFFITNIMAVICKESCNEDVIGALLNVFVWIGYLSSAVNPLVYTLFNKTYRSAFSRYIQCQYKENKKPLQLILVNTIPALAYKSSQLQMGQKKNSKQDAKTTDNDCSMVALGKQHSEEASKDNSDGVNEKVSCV
Procedure: as §1, §2, §3, §4

Structure (SMILES)	IC50 (5-HT2C receptor) [nM]	Ki (5-HT2C receptor) [nM]	IC50 (5-HT2A receptor) [nM]	Ki (5-HT2A receptor) [nM]
Clc1ccc2c(c1)-c1[nH]cnc1-c1ccccc1O2 [11chloro-1H-8-oxa-1,3-diaza-dibenzo[e,h]azulene]	< 200	< 100	< 200	< 100
CN(C)CCOCc1nc2c(n1C)-c1ccccc1Sc1ccccc1-2 [dimethyl-[2-(1-methyl-1H-8-thia-1,3-diaza-dibenzo[e,h]azulen-2-ylmethoxy)-ethyl]-amine]	< 200	< 100	< 200	< 100
CN(C)CCCOc1ccccc1-c1nc2c([nH]1)-c1ccccc1Sc1ccccc1-2 [dimethyl-{3-[2-(1H-8-thia-1,3-diaza-dibenzo[e,h]azulen-2-yl)-phenoxy]-propyl}-amine]	< 200	< 100	< 200	< 100
CN(C)CCCOCc1nc2c([nH]1)-c1cc(Cl)ccc1Sc1ccccc1-2 [[3-(11-chloro-1H-8-thia-1,3-diaza-dibenzo[e,h]azulen-2-ylmethoxy)-propyl]-dimethyl-amine]	< 200	< 100	< 200	< 100
